Reference: the Kinase Knowledgebase extract (Sharma et al. 2016)

Biological target: PIK3CD (Human) (UniProt O00329)
Assay: Enzyme Assay

Sequence of PIK3CD (Human) (O00329 whole entry, looked up): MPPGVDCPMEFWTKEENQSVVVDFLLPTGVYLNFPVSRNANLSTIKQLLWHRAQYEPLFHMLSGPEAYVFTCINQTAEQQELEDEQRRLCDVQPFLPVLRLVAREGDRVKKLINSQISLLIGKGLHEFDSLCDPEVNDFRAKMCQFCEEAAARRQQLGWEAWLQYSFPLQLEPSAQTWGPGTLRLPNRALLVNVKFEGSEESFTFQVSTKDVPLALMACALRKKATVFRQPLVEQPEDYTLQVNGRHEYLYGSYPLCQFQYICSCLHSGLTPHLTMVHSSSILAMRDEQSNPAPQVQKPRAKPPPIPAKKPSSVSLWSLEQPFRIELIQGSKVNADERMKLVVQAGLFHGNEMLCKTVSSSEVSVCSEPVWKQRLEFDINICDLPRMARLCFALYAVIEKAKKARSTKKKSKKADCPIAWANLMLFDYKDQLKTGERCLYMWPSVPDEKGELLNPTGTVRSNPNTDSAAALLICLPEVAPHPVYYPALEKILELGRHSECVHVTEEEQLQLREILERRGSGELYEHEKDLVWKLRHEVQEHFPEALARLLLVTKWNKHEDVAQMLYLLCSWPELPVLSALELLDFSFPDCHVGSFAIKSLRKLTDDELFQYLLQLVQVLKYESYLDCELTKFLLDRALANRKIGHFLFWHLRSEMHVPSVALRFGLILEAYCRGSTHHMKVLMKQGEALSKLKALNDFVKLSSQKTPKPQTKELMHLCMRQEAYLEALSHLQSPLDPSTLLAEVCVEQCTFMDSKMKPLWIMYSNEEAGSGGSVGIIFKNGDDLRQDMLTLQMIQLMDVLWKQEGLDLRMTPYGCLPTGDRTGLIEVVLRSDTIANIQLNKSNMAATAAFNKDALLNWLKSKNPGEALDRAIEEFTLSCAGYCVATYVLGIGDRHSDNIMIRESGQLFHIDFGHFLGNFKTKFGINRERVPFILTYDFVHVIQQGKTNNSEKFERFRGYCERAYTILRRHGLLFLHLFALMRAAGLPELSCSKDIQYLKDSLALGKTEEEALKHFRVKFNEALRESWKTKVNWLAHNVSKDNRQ

Structure (SMILES)	Ki [nM]
C[C@@H](Nc1ncnc(N)c1C#N)c1nc2ccc(F)cc2n1-c1cncc(Br)c1.C[C@H](Nc1ncnc(N)c1C#N)c1nc2ccc(F)cc2n1-c1cncc(Br)c1	46.1
C[C@@H](Nc1ncnc(N)c1C#N)c1nc2ncccc2n1-c1ccccn1.C[C@H](Nc1ncnc(N)c1C#N)c1nc2ncccc2n1-c1ccccn1	2900
C[C@@H](Nc1ncnc(N)c1C#N)c1nc2ccc(F)cc2n1-c1ccc(-c2cccnc2)nc1	1190
C[C@H](Nc1ncnc(N)c1C#N)c1nc2ccc(F)cc2n1-c1ccc(-c2cccnc2)nc1	248
CNC(=O)c1cccc2nc([C@@H](C)Nc3ncnc(N)c3C#N)n(-c3cncc(F)c3)c12.CNC(=O)c1cccc2nc([C@H](C)Nc3ncnc(N)c3C#N)n(-c3cncc(F)c3)c12	90.1
C[C@@H](Nc1ncnc(N)c1C#N)c1nc2cccc(Br)c2n1-c1cncc(F)c1.C[C@H](Nc1ncnc(N)c1C#N)c1nc2cccc(Br)c2n1-c1cncc(F)c1	69.7
C[C@@H](Nc1ncnc(N)c1C#N)c1nc2c(F)cccc2n1-c1cncc(F)c1.C[C@H](Nc1ncnc(N)c1C#N)c1nc2c(F)cccc2n1-c1cncc(F)c1	86.1
CNC(=O)c1cccc(-n2c([C@@H](C)Nc3ncnc(N)c3C#N)nc3ccc(F)cc32)c1.CNC(=O)c1cccc(-n2c([C@H](C)Nc3ncnc(N)c3C#N)nc3ccc(F)cc32)c1	30.6
C[C@@H](Nc1ncnc(N)c1C#N)c1nc2cc(F)ccc2n1-c1cncc(F)c1.C[C@H](Nc1ncnc(N)c1C#N)c1nc2cc(F)ccc2n1-c1cncc(F)c1	148
C[C@@H](Nc1ncnc(N)c1C#N)c1nc2cccc(C#N)c2n1-c1cncc(F)c1.C[C@H](Nc1ncnc(N)c1C#N)c1nc2cccc(C#N)c2n1-c1cncc(F)c1	177

Stronger by Ki, values ahead:

Ki [nM]	Structure (SMILES)
14.4	C[C@@H](Nc1ncnc(N)c1C#N)c1nc2ccc(F)cc2n1-c1cncc(NS(C)(=O)=O)c1.C[C@H](Nc1ncnc(N)c1C#N)c1nc2ccc(F)cc2n1-c1cncc(NS(C)(=O)=O)c1
24.7	C[C@@H](Nc1ncnc(N)c1C#N)c1nc2ccc(F)cc2n1-c1cccc(F)n1.C[C@H](Nc1ncnc(N)c1C#N)c1nc2ccc(F)cc2n1-c1cccc(F)n1
3.76	C[C@@H](Nc1ncnc(N)c1C#N)c1nc2cccc(S(C)(=O)=O)c2n1C1CC1.C[C@H](Nc1ncnc(N)c1C#N)c1nc2cccc(S(C)(=O)=O)c2n1C1CC1
28.8	C[C@@H](Nc1ncnc(N)c1C#N)c1nc2ccc(F)cc2n1-c1cccc(C#N)c1.C[C@H](Nc1ncnc(N)c1C#N)c1nc2ccc(F)cc2n1-c1cccc(C#N)c1
22.2	C[C@@H](Nc1ncnc(N)c1C#N)c1nc2c(F)cc(F)cc2n1-c1cccnc1.C[C@H](Nc1ncnc(N)c1C#N)c1nc2c(F)cc(F)cc2n1-c1cccnc1
